Among the data in ChEMBL document CHEMBL3046490, “Evaluation of fungicides to control circular leaf spot of persimmon caused by Mycosphaerella nawae” (Crop Prot, 2011) are EC50 values, retold here.

What all share (assay type): functional, organism-based
Assay [1] relates to Plurivorosphaerella nawae. The assay can be described thus: Antifungal activity against circular leaf spot causing Mycosphaerella nawae MY1 assessed as inhibition of mycelial growth on potato dextrose agar.
The subject of assay [2] is Plurivorosphaerella nawae. The assay can be described thus: Antifungal activity against circular leaf spot causing Mycosphaerella nawae MY5 assessed as inhibition of mycelial growth on potato dextrose agar.
The next assay has as its system Monilinia fructicola. Kind of assay: Antifungal activity against Monilinia fructicola isolated from peach fields assessed as mycelial growth inhibition.
In another assay the test system is Zasmidium citrigriseum. Kind of assay: Antifungal activity against citrus greasy spot disease caused by Zasmidium citri assessed as inhibition of mycelial growth on potato dextrose agar.

Converted amounts (≈) assume the structure as drawn.

Turning to `O=C1C2CC=CCC2C(=O)N1SC(Cl)(Cl)Cl` (stereo not given) [CAPTAN], the EC50 in assay [1] and in assay [2] was over 100 µg/mL throughout.
Regarding `N#Cc1c(Cl)c(Cl)c(Cl)c(C#N)c1Cl` [CHLOROTHALONIL], the figures for the EC50 in assay [1] and in assay [2] were 33.5 µg/mL (≈ 126 µM) and 17 µg/mL (≈ 63.9 µM), respectively.
For `Cc1cc(C2CC2)nc(Nc2ccccc2)n1` [CYPRODINIL], in that order: 76.8 µg/mL (≈ 341 µM) and 52.4 µg/mL (≈ 233 µM).
Consider `CC(Cc1ccc(C(C)(C)C)cc1)CN1C[C@@H](C)O[C@@H](C)C1` (stereo not given in full) [FENPROPIMORPH], for which the EC50 in assay [1] came to 0.2 µg/mL (≈ 0.659 µM); in assay [2], 0.4 µg/mL (≈ 1.32 µM).
For `O=[N+]([O-])c1cc(C(F)(F)F)c(Cl)c([N+](=O)[O-])c1Nc1ncc(C(F)(F)F)cc1Cl` [FLUAZINAM], in that order: 24 µg/mL (≈ 51.6 µM) and 50.6 µg/mL (≈ 109 µM).
Consider `COC(=O)N(OC)c1ccccc1COc1ccn(-c2ccc(Cl)cc2)n1` [PYRACLOSTROBIN], for which the EC50 in assay [1] was determined as 1.6 µg/mL (≈ 4.13 µM); with Monilinia fructicola, 0.04 ppm; in assay [2] it was 1.9 µg/mL (≈ 4.9 µM); with Zasmidium citrigriseum it was 0.03 ppm.
With `CC(C)(C)C(O)(CCc1ccc(Cl)cc1)Cn1cncn1` (stereo not given) [TEBUCONAZOLE], the values for the EC50 in assay [1] and in assay [2] were 1.3 µg/mL (≈ 4.22 µM) and 0.7 µg/mL (≈ 2.27 µM), respectively.
For `COC(=O)NC(=S)Nc1ccccc1NC(=S)NC(=O)OC` [THIOPHANATE METHYL], in that order: 1.5 µg/mL (≈ 4.38 µM) and 1.7 µg/mL (≈ 4.96 µM).
Taken in the same sequence, the figures for `CN(C)C(=S)SSC(=S)N(C)C` [THIRAM] were 13.8 µg/mL (≈ 57.4 µM) and 26.8 µg/mL (≈ 111 µM).
